Test results taken from US3984393A, “Aminoglycoside antibiotics” (The Upjohn Company, priority 1975, dated 1976).
≈ marks a conversion by molar mass, not a printed value. Like-named read-outs stand apart in the source and are kept apart here.

Key:
[1] = tested on: S. flexneri UC 143; assay: standard microplate test in BHI Agar (MIC), S. flexneri UC 143; assay type: cell-based; conditions: Shigella flexneri, UC143, 20 h, retest table, group (9), (11), (7α), neamine control, read-out: Minimum Inhibitory Concentration
Description: (§1) Compounds were also tested in a standard microplate test in Brain Heart Infusion (BHI) Agar, at a concentration of 1 mg/ml. Incubation is at 37° and end points are read at 20 hours. Brain Heart Infusion Agar (supplied by Difco Laboratories, Detroit, Michigan, U.S.A.) has the following composition:
(§2) Compounds (7β), (7α) and (9) were tested again along with compounds (11) and (14β) against a neamine control using the same conditions as given above.

[2] = tested on: S. hemolyticus UC 152; assay: standard microplate test in BHI Agar (MIC), S. hemolyticus UC 152; assay type: cell-based, Streptococcus hemolyticus; conditions: Streptococcus pyogenes, UC152, 20 h
Description: as §1, §2

[3] = tested on: K. pneumoniae UC 58; assay: standard microplate test in BHI Agar (MIC), K. pneumoniae UC 58; assay type: cell-based; conditions: Klebsiella pneumoniae, UC58, 20 h
Description: as §1, §2

[4] = tested on: B. subtilis; assay: standard disc plate assay, 12.5 mm paper discs (zone of inhibition), B. subtilis; assay type: cell-based, Bacillus subtilis
From the text: (§3) The novel intermediates, disclosed herein, are useful to make novel aminoglycoside antibiotics. These novel aminoglycoside antibiotics are antibacterially active, and, thus, they can be used in various environments to eradicate or control sensitive bacteria. Following are in vitro antibacterial test results for representative compounds of the subject invention. The results were obtained with a standard disc plate assay using 12.5 mm paper discs.

[5] = tested on: S. schottmuelleri UC 126; assay: standard microplate test in BHI Agar (MIC), S. schottmuelleri UC 126; assay type: cell-based; conditions: 20 h, BHI agar, 37°, first table, read-out: Minimum Inhibitory Concentration
Description: as §1, §2

[6] = tested on: P. morgani UC 3186; assay: standard microplate test in BHI Agar (MIC), P. morgani UC 3186; assay type: cell-based; conditions: 20 h, retest table, group (9), (11), (7α), neamine control
Description: as §1, §2

[7] = tested on: S. aureus UC 570; assay: standard microplate test in BHI Agar (MIC), S. aureus UC 570; assay type: cell-based; conditions: Staphylococcus aureus, UC570, 20 h, 37°, first table, read-out: Minimum Inhibitory Concentration
Description: as §1, with “composition: […]” for “composition:”

[8] = tested on: S. aureus UC 76; assay: standard microplate test in BHI Agar (MIC), S. aureus UC 76; assay type: cell-based, Staphylococcus aureus; conditions: Staphylococcus aureus, UC76, 20 h
Description: as §1, §2

[9] = tested on: P. rettgeri UC 339; assay: standard microplate test in BHI Agar (MIC), P. rettgeri UC 339; assay type: cell-based; conditions: Providencia rettgeri, UC339, 20 h; P. rettgeri UC 339; retest table, group (9), (11), (7α), neamine control; read-out: Minimum Inhibitory Concentration
Description: as §1, §2

[10] = tested on: S. aureus UC 746; assay: standard microplate test in BHI Agar (MIC), S. aureus UC 746; assay type: cell-based; conditions: Staphylococcus aureus, UC746, 37°, 20 h, first table, read-out: Minimum Inhibitory Concentration
Description: as §1, with “composition: […]” for “composition:”

[11] = tested on: B. cereus; assay: standard disc plate assay, 12.5 mm paper discs (zone of inhibition), B. cereus; assay type: cell-based, Bacillus cereus; conditions: for zone of inhibition at 10000 µg/mL: 10 mg/ml; for active against Bacillus cereus: conclusion in words from the above results
From the text: as §3

[12] = tested on: S. typhi TG-3; assay: standard microplate test in BHI Agar (MIC), S. typhi TG-3; assay type: cell-based; conditions: Salmonella enterica, 20 h, read-out: Minimum Inhibitory Concentration
Description: as §1, §2

[13] = tested on: P. mirabilis A-63; assay: standard microplate test in BHI Agar (MIC), P. mirabilis A-63; assay type: cell-based; conditions: Proteus mirabilis, A63, 20 h; P. mirabilis A-63; retest table, group (9), (11), (7α), neamine control; read-out: Minimum Inhibitory Concentration
Description: as §1, §2

[14] = tested on: St. faecalis UC 694; assay: standard microplate test in BHI Agar (MIC), St. faecalis UC 694; assay type: cell-based; conditions: Enterococcus faecalis, UC694, 20 h, read-out: Minimum Inhibitory Concentration
Description: as §1, §2

[15] = tested on: E. coli UC 45; assay: standard microplate test in BHI Agar (MIC), E. coli UC 45; assay type: cell-based; conditions: Escherichia coli, UC45, 20 h
Description: as §1, §2

[16] = tested on: Ps. aeruginosa UC 95; assay: standard microplate test in BHI Agar (MIC), Ps. aeruginosa UC 95; assay type: cell-based; conditions: Pseudomonas aeruginosa, UC95, 20 h, Ps. aeruginosa UC 95, read-out: Minimum Inhibitory Concentration
Description: as §1, §2

[17] = tested on: S. marcescens UC 131; assay: standard microplate test in BHI Agar (MIC), S. marcescens UC 131; assay type: cell-based; conditions: Serratia marcescens, UC131, 20 h; S. marcescens UC 131; retest table, group (9), (11), (7α), neamine control; read-out: Minimum Inhibitory Concentration
Description: as §1, §2

[18] = tested on: P. vulgaris UC 93; assay: standard microplate test in BHI Agar (MIC), P. vulgaris UC 93; assay type: cell-based; conditions: Proteus vulgaris, UC93, 20 h
Description: as §1, §2

[19] = tested on: D. pneumoniae UC 41; assay: standard microplate test in BHI Agar (MIC), D. pneumoniae UC 41; assay type: cell-based; conditions: Streptococcus pneumoniae, UC41, 20 h
Description: as §1, §2

[20] = S. hemolyticus UC 152, retest table, group (9), (11), (7α), neamine control, read-out: Minimum Inhibitory Concentration
[21] = K. pneumoniae UC 58, retest table, group (9), (11), (7α), neamine control, read-out: Minimum Inhibitory Concentration
[22] = S. faecalis UC 694, retest table, group (9), (11), (7α), neamine control
[23] = retest table, group (9), (11), (7α), neamine control

NC[C@H]1O[C@H](O[C@H]2[C@H](O)[C@@H](O[C@H]3O[C@H](CO)[C@@H](O)[C@H]3O)[C@H](N)C[C@@H]2N)[C@H](N)[C@@H](O)[C@@H]1O [(7α), 6-O-(α-D-Ribofuranosyl)neamine]
MIC [1]: 125 µg/mL (≈ 275 µM)
MIC ([2]; read-out: Minimum Inhibitory Concentration, S. hemolyticus UC 152, BHI agar, 37°, 20 h, first table): 31.2 µg/mL (≈ 68.7 µM)
MIC [2, 20]: 7.8 µg/mL (≈ 17.2 µM)
MIC ([3]; read-out: Minimum Inhibitory Concentration, K. pneumoniae UC 58, BHI agar, 37°, 20 h, first table): 62.5 µg/mL (≈ 138 µM)
MIC [3, 21]: 7.8 µg/mL (≈ 17.2 µM)
zone of inhibition at 5000 µg/mL ([4]; Bacillus subtilis, B. subtilis, 5 mg/ml): 32 mm
zone of inhibition at 10000 µg/mL ([4]; Bacillus subtilis, B. subtilis, 10 mg/ml): 34 mm
active against Bacillus subtilis ([4]; conclusion in words from the above results): active
MIC [5]: 500 µg/mL (≈ 1100 µM)
MIC ([6]; read-out: Minimum Inhibitory Concentration, P. morgani UC 3186): 125 µg/mL (≈ 275 µM)
MIC [7]: 500 µg/mL (≈ 1100 µM)
MIC ([8]; S. aureus 284 UC 76, BHI agar, 37°, 20 h, first table, read-out: Minimum Inhibitory Concentration): 1000 µg/mL (≈ 2200 µM)
MIC ([8]; read-out: Minimum Inhibitory Concentration, S. aureus UC 76, retest table, group (9), (11), (7α), neamine control): 62.5 µg/mL (≈ 138 µM)
MIC [9]: 1000 µg/mL (≈ 2200 µM)
MIC [10]: 1000 µg/mL (≈ 2200 µM)
zone of inhibition at 5000 µg/mL ([11]; Bacillus cereus, B. cereus, 5 mg/ml): 25 mm
zone of inhibition at 10000 µg/mL ([11]; Bacillus cereus, B. cereus): 32 mm
active against Bacillus cereus [11]: active
MIC [12]: 62.5 µg/mL (≈ 138 µM)
MIC [13]: 500 µg/mL (≈ 1100 µM)
MIC [14, 22]: 1000 µg/mL (≈ 2200 µM)
MIC ([14]; St. faecalis UC 694, BHI agar, 37°, 20 h, first table): > 1000 µg/mL
MIC ([15]; E. coli UC 45, BHI agar, 37°, 20 h, first table, read-out: Minimum Inhibitory Concentration): 500 µg/mL (≈ 1100 µM)
MIC ([15]; read-out: Minimum Inhibitory Concentration, E. coli UC 45, retest table, group (9), (11), (7α), neamine control): 62.5 µg/mL (≈ 138 µM)
MIC ([16]; BHI agar, 37°, 20 h, first table): > 1000 µg/mL
MIC [16, 23]: 1000 µg/mL (≈ 2200 µM)
MIC [17]: 250 µg/mL (≈ 550 µM)
MIC ([18]; P. vulgaris UC 93, BHI agar, 37°, 20 h, first table, read-out: Minimum Inhibitory Concentration): 1000 µg/mL (≈ 2200 µM)
MIC ([18]; read-out: Minimum Inhibitory Concentration, P. vulgaris UC 93, retest table, group (9), (11), (7α), neamine control): 125 µg/mL (≈ 275 µM)
MIC ([19]; D. pneumoniae UC 41, BHI agar, 37°, 20 h, first table, read-out: Minimum Inhibitory Concentration): > 1000 µg/mL
MIC ([19]; read-out: Minimum Inhibitory Concentration, D. pneumoniae UC 41, retest table, group (9), (11), (7α), neamine control): 125 µg/mL (≈ 275 µM)

NC[C@H]1O[C@H](O[C@H]2[C@H](O)[C@@H](O)[C@H](N)C[C@@H]2N)[C@H](N)[C@@H](O[C@@H]2O[C@H](CO)[C@@H](O)[C@H](O)[C@H]2O)[C@@H]1O [(11), 3'-O-(β-D-glucopyranosyl)neamine]
MIC [1]: 1000 µg/mL (≈ 2060 µM)
MIC [2, 20]: 1000 µg/mL (≈ 2060 µM)
MIC [3, 21]: 1000 µg/mL (≈ 2060 µM)
MIC ([6]; P. morgani UC 3186, read-out: Minimum Inhibitory Concentration): 1000 µg/mL (≈ 2060 µM)
MIC ([8]; S. aureus UC 76, retest table, group (9), (11), (7α), neamine control, read-out: Minimum Inhibitory Concentration): 1000 µg/mL (≈ 2060 µM)
MIC [9]: 1000 µg/mL (≈ 2060 µM)
zone of inhibition at 10000 µg/mL ([11]; Bacillus cereus, B. cereus): 16 mm
active against Bacillus cereus [11]: active
MIC [12]: 1000 µg/mL (≈ 2060 µM)
MIC [13]: 1000 µg/mL (≈ 2060 µM)
MIC [14, 22]: 1000 µg/mL (≈ 2060 µM)
MIC ([15]; E. coli UC 45, retest table, group (9), (11), (7α), neamine control, read-out: Minimum Inhibitory Concentration): 1000 µg/mL (≈ 2060 µM)
MIC [16, 23]: 1000 µg/mL (≈ 2060 µM)
MIC [17]: 1000 µg/mL (≈ 2060 µM)
MIC ([18]; P. vulgaris UC 93, retest table, group (9), (11), (7α), neamine control, read-out: Minimum Inhibitory Concentration): 1000 µg/mL (≈ 2060 µM)
MIC ([19]; D. pneumoniae UC 41, retest table, group (9), (11), (7α), neamine control, read-out: Minimum Inhibitory Concentration): 1000 µg/mL (≈ 2060 µM)
